Columns and labels:
Assay type in all cases: functional
SNB-19 = assay: Cytotoxicity against human SNB19 cells at 10 uM after 48 hrs by SRB assay; details: SNB-19, 48 h, read-out: GI
NCI-H322M = assay: Cytotoxicity against human NCI-H322M cells at 10 uM after 48 hrs by SRB assay; details: read-out: GI
SR = assay: Cytotoxicity against human SR cells at 10 uM after 48 hrs by SRB assay; details: read-out: GI
SW-620 = assay: Cytotoxicity against human SW620 cells at 10 uM after 48 hrs by SRB assay; details: SW-620, 48 h, read-out: GI
CAKI-1 = assay: Cytotoxicity against human Caki1 cells at 10 uM after 48 hrs by SRB assay; details: CAKI-1, 48 h, read-out: GI
Malme-3M = assay: Cytotoxicity against human MALME-3M cells at 10 uM after 48 hrs by SRB assay; details: read-out: GI
HOP-92 = assay: Cytotoxicity against human HOP92 cells at 10 uM after 48 hrs by SRB assay; details: HOP-92, 48 h, read-out: GI
OVCAR-4 = assay: Cytotoxicity against human OVCAR4 cells at 10 uM after 48 hrs by SRB assay; details: OVCAR-4, 48 h, read-out: GI
RPMI-8226 = assay: Cytotoxicity against human RPMI8226 cells at 10 uM after 48 hrs by SRB assay; details: RPMI-8226, 48 h, read-out: GI
LOX IMVI = assay: Cytotoxicity against human LOXIMVI cells at 10 uM after 48 hrs by SRB assay; details: read-out: GI
KM12 = assay: Cytotoxicity against human KM12 cells at 10 uM after 48 hrs by SRB assay; details: KM12, 48 h, read-out: GI
HT-29 = assay: Cytotoxicity against human HT-29 cells at 10 uM after 48 hrs by SRB assay; details: HT-29, 48 h, read-out: GI
M14 = assay: Cytotoxicity against human M14 cells at 10 uM after 48 hrs by SRB assay; details: M14, 48 h, read-out: GI
COLO 205 = assay: Cytotoxicity against human COLO205 cells at 10 uM after 48 hrs by SRB assay; details: COLO 205, 48 h, read-out: GI
NCI-H23 = assay: Cytotoxicity against human NCI-H23 cells at 10 uM after 48 hrs by SRB assay; details: NCI-H23, 48 h, read-out: GI
NCI-H522 = assay: Cytotoxicity against human NCI-H522 cells at 10 uM after 48 hrs by SRB assay; details: NCI-H522, 48 h, read-out: GI
MOLT-4 = assay: Cytotoxicity against human MOLT4 cells at 10 uM after 48 hrs by SRB assay; details: MOLT-4, 48 h, read-out: GI
UACC-62 = assay: Cytotoxicity against human UACC62 cells at 10 uM after 48 hrs by SRB assay; details: UACC-62, 48 h, read-out: GI
CCRF-CEM = assay: Cytotoxicity against human CCRF-CEM cells at 10 uM after 48 hrs by SRB assay; details: read-out: GI

Row | Compound | inhibition of growth at 10 µM (SNB-19) | inhibition of growth at 10 µM (NCI-H322M) | inhibition of growth at 10 µM (SR) | inhibition of growth at 10 µM (SW-620) | inhibition of growth at 10 µM (CAKI-1) | inhibition of growth at 10 µM (Malme-3M) | inhibition of growth at 10 µM (HOP-92) | inhibition of growth at 10 µM (OVCAR-4) | inhibition of growth at 10 µM (RPMI-8226) | inhibition of growth at 10 µM (LOX IMVI) | inhibition of growth at 10 µM (KM12) | inhibition of growth at 10 µM (HT-29) | inhibition of growth at 10 µM (M14) | inhibition of growth at 10 µM (COLO 205) | inhibition of growth at 10 µM (NCI-H23) | inhibition of growth at 10 µM (NCI-H522) | inhibition of growth at 10 µM (MOLT-4) | inhibition of growth at 10 µM (UACC-62) | inhibition of growth at 10 µM (CCRF-CEM)
1 | C=CCn1c(C)nc2ccc(Nc3nc(Cl)nc4ccccc34)cc21 | < 10% | < 10% | < 10% | < 10% | 12.8% | < 10% | < 10% | < 10% | 24.7% | < 10% | < 10% | < 10% | < 10% | < 10% | < 10% | < 10% | 21.3% | < 10% | 
2 | C=CCn1c(C)nc2cc(Nc3nc(Cl)nc4ccccc34)ccc21 | < 10% | < 10% | < 10% | < 10% | 16.9% |  | < 10% | < 10% | 22.3% | < 10% | < 10% | < 10% | < 10% | < 10% | < 10% | < 10% | < 10% | 10.2% | 
3 | C=CCn1c(C)nc2ccc(Nc3nc(N4CCOCC4)nc4ccccc34)cc21 | < 10% | < 10% | < 10% | < 10% | 11.5% | < 10% | < 10% | < 10% |  | < 10% | 11.9% | 34.7% | < 10% | < 10% | < 10% | < 10% |  | < 10% | 
4 | C=CCn1c(C)nc2ccc(Nc3nc(N4CCCC4)nc4ccccc34)cc21 | < 10% | < 10% | 94.2% | 24.9% | 15% | < 10% | 18.6% | < 10% | 45% | 97.5% | 29.9% | 94.3% | 10.3% | < 10% | 11.3% | < 10% | 50% | < 10% | 
5 | C=CCn1c(C)nc2ccc(Nc3nc(N4CCN(C)CC4)nc4ccccc34)cc21 | < 10% | < 10% |  | < 10% | 14.4% | < 10% | 42.4% | 20.7% | 28.5% | 18% | 20.5% | 42.6% | < 10% | 23.6% | 19.2% | < 10% | 43.1% | < 10% | 31.5%
6 | C=CCn1c(C)nc2cc(Nc3nc(N4CCOCC4)nc4ccccc34)ccc21 | < 10% | < 10% | < 10% | < 10% | < 10% |  | < 10% | < 10% | 13.4% | < 10% | < 10% | < 10% | < 10% | < 10% | < 10% | < 10% | < 10% | < 10% | 
7 | C=CCn1c(C)nc2cc(Nc3nc(N4CCCC4)nc4ccccc34)ccc21 | < 10% | < 10% | 11% | < 10% | 10.2% | < 10% | 15.5% | < 10% | 12.2% | < 10% | < 10% | < 10% | < 10% |  | < 10% | < 10% | < 10% | < 10% | 

From ChEMBL document CHEMBL2380212, “Synthesis, single crystal and antitumor activities of benzimidazole-quinazoline hybrids” (Bioorg Med Chem Lett, 2013)
